From US20250163072A1, “MACROCYCLIC COMPOUNDS FOR THE TREATMENT OF CANCER” (Hoffmann-La Roche Inc., priority 2021, published 2025)

How the values were obtained:
Format in all cases: cell-based, human
KRAS G12D in AGS cells = test: pERK inhibition assay, AGS; conditions: Homo sapiens, 4 hours incubation
Method: (§1) This assay is to measure the ability of test compounds in inhibiting the phosphorylation of ERK, the downstream signaling of KRAS G12C in NCI-H358 cells, KRAS G12D in AGS cells, and KRAS G12V in SW620. NCI-H358 (ATCC-CRL5807) cells, AGS (ATCC-CRL-1739) cells, SW620 (ATCC-CCL-227) cells were all grown and maintained using RPMI-1640 medium (Thermo Fisher Scientific) with 10% fetal bovine serum and 1% penicillin/streptomycin. On the day prior to compound addition, cells were plated in tissue culture-treated 96 well plates (Corning-3699) at a density of 30,000 cell/well, 20,000 cell/well, 30,000 cell/well for NCI-H358, AGS and SW620 respectively, and allowed for attachment overnight. Diluted compounds were then added in a final concentration of 0.5% DMSO. After 4 hours of incubation, the medium was removed, 100 μL of 4% formaldehyde was added, and the assay plates were incubated at room temperature for 20 minutes. The plates were then washed once with phosphate buffered saline (PBS), and permeabilized with 100 μL of chilled methanol for 10 minutes. Non-specific antibody binding to the plates was blocked using 50 μL 1×BSA blocking buffer (Thermo-37520, 10-fold dilution by Phosphate-Buffered Saline Tween (PBST) for at least 1 hour at room temperature. The amount of phosphor-ERK was determined using an antibody specific for phosphorylated form of ERK. Primary antibody (pERK, CST-4370, Cell Signaling Technology) was diluted 1:300 in blocking buffer, with 50 μL aliquoted to each well, and incubated overnight at 4° C. Cells were washed five times for 5 minutes with PBST. Secondary antibody (HRP-linked anti-rabbit IgG, CST-7074, Cell Signaling Technology) was diluted 1:1000 in blocking buffer, and 50 μL was added to each well and incubated 1-2 hours at room temperature. Cells were washed 5 times for 5 minutes with PBST, 100 μL TMB ELISA substrate (abcam-ab171523) were added and gently shake for 20 minutes. 50 μL stop solution (abcam-ab171529) were added, and then read the signal (OD450) by EnVision. IC50 was determined by fitting a 4-parameter sigmoidal concentration response model.

[1] = tested on: KRAS G12C in NCI-H358 cells; test: pERK inhibition assay, NCI-H358; conditions: Homo sapiens, 4 hours incubation
Method: as §1

NCI-H358 cells = test: Cell viability assay, NCI-H358; conditions: Homo sapiens, NCI-H358, 72 hours, Cell Counting Kit-8, read-out: G12C IC50
Method: (§2) The purpose of this cellular assay was to determine the effects of test compounds on the proliferation of human cancer cell lines NCI-H358 (ATCC-CRL5807) cells, AGS (ATCC-CRL-1739) cells, SW620 (ATCC-CCL-227) over a 3-day treatment period by quantifying the amount of NADPH present at endpoint using Cell Counting Kit-8. Cells were seeded at 5,000 cells/well (NCI-H358), 2,000 cells/well (AGS) 2,000 cells/well (SW620) in 96-well assay plates (Corning-3699) and incubated overnight. On the day of the assay, diluted compounds were then added in a final concentration of 0.5% DMSO. After 72 hours incubation, a tenth of the volume of cell counting kit 8(Dnjindo-CK04) was added into each well. Read the signal (OD450 minus OD650) using EnVision after 2 hours incubation. IC50 was determined by fitting a 4-parameter sigmoidal concentration response model.

AGS cells = test: Cell viability assay, AGS; conditions: Homo sapiens, 72 hours, Cell Counting Kit-8, read-out: G12D IC50
Method: as §2

KRAS G12V in SW620 = test: pERK inhibition assay, SW620; conditions: Homo sapiens, SW-620, SW620 cells, 4 hours incubation
Method: as §1

SW620 cells = test: Cell viability assay, SW620; conditions: Homo sapiens, SW-620, SW620, 72 hours, Cell Counting Kit-8, read-out: G12V IC50
Method: as §2

| SMILES | IC50 (KRAS G12D in AGS cells) [nM] | IC50 [1] [nM] | IC50 (NCI-H358 cells) [nM] | IC50 (AGS cells) [nM] | IC50 (KRAS G12V in SW620) [nM] | IC50 (SW620 cells) [nM] |
| --- | --- | --- | --- | --- | --- | --- |
| CCn1c(-c2cccnc2[C@H](C)OC)c2c3cc(ccc31)-c1cc(O)cc(c1)C[C@H](NC(=O)[C@H](C(C)C)N(C)C(=O)[C@H]1CCN(CC#N)C1)C(=O)N1CCC[C@H](N1)C(=O)OCC(C)(C)C2 (atropisomer, axis not shown; (M)) [Example 7, (3S)-1-(cyanomethyl)-N-[(1S)-1-[[(8S,14S)-22-ethyl-4-hydroxy-(21M)-21-[2-[(1S)-1-methoxyethyl]-3-pyridyl]-18,18-dimethyl-9,15-dioxo-16-oxa-10,22,28-triazapentacyclo[18.5.2.12,6.110,14.023,27]nonacosa-1(26),2,4,6(29),20,23(27),24-heptaen-8-yl]carbamoyl]-2-methyl-propyl]-N-methyl-pyrrolidine-3-carboxamide] | 236 | 513 | – | – | – | – |
| CCn1c(-c2cccnc2[C@H](C)OC)c2c3cc(ccc31)-c1csc(n1)C[C@H](NC(=O)[C@H](C(C)C)N(C)C(=O)[C@H]1CCN(C(=O)[C@H](F)Cl)C1)C(=O)N1CCC[C@H](N1)C(=O)OCC(C)(C)C2 (atropisomer, axis not shown; (M)) [Example 17, (3S)-1-[(2R)-2-chloro-2-fluoro-acetyl]-N-[(1S)-1-[[(7S,13S)-21-ethyl-(20M)-20-[2-[(1S)-1-methoxyethyl]-3-pyridyl]-17,17-dimethyl-8,14-dioxo-15-oxa-4-thia-9,21,27,28-tetrazapentacyclo[17.5.2.12,5.19,13.022,26]octacosa-1(25),2,5(28),19,22(26),23-hexaen-7-yl]carbamoyl]-2-methyl-propyl]-N-methyl-pyrrolidine-3-carboxamide] | – | 23 | 6 | 1130 | 124 | 449 |
| CCn1c(-c2cccnc2[C@H](C)OC)c2c3cc(ccc31)-c1cc(O)cc(c1)C[C@H](NC(=O)[C@H](C(C)C)N(C)C(=O)[C@H]1CCN(C(=O)C34CC3C4)C1)C(=O)N1CCC[C@H](N1)C(=O)OCC(C)(C)C2 (stereo partly drawn) [Example 11, (3S)-1-(bicyclo[1.1.0]butane-1-carbonyl)-N-[(1S)-1-[[(8S,14S)-22-ethyl-4-hydroxy-(21M)-21-[2-[(1S)-1-methoxyethyl]-3-pyridyl]-18,18-dimethyl-9,15-dioxo-16-oxa-10,22,28-triazapentacyclo[18.5.2.12,6.110,14.023,27]nonacosa-1(26),2,4,6(29),20,23(27),24-heptaen-8-yl]carbamoyl]-2-methyl-propyl]-N-methyl-pyrrolidine-3-carboxamide] | 164 | 83 | 118 | – | 380 | 161 |

Other lines, results leading:

| IC50 (KRAS G12D in AGS cells) [nM] | IC50 [1] [nM] | IC50 (NCI-H358 cells) [nM] | IC50 (AGS cells) [nM] | IC50 (KRAS G12V in SW620) [nM] | IC50 (SW620 cells) [nM] | SMILES |
| --- | --- | --- | --- | --- | --- | --- |
| 469 | 8 | 4 | – | – | – | CCn1c(-c2cccnc2[C@H](C)OC)c2c3cc(ccc31)-c1cc(O)cc(c1)C[C@H](NC(=O)[C@H](C(C)C)N(C)C(=O)[C@H]1CCN(C(=O)[C@@H](F)Cl)C1)C(=O)N1CCC[C@H](N1)C(=O)OCC(C)(C)C2 (atropisomer, axis not shown; (M)) [Example 1, (3S)-1-[(2S)-2-chloro-2-fluoro-acetyl]-N-[(1S)-1-[[(8S,14S)-22-ethyl-4-hydroxy-(21M)-21-[2-[(1S)-1-methoxyethyl]-3-pyridyl]-18,18-dimethyl-9,15-dioxo-16-oxa-10,22,28-triazapentacyclo[18.5.2.12,6.110,14.023,27]nonacosa-1(26),2,4,6 (29),20,23 (27),24-heptaen-8-yl]carbamoyl]-2-methyl-propyl]-N-methyl-pyrrolidine-3-carboxamide] |
| – | – | 797 | – | – | – | C#CCN1CC[C@H](C(=O)N(C)[C@H](C(=O)N[C@H]2Cc3cc(O)cc(c3)-c3ccc4c(c3)c(c(-c3cccnc3[C@H](C)OC)n4CC)CC(C)(C)COC(=O)[C@@H]3CCCN(N3)C2=O)C(C)C)C1 (atropisomer, axis not shown; (M)) [Example 6, (3S)-N-[(1S)-1-[[(8S,14S)-22-ethyl-4-hydroxy-(21M)-21-[2-[(1S)-1-methoxyethyl]-3-pyridyl]-18,18-dimethyl-9,15-dioxo-16-oxa-10,22,28-triazapentacyclo[18.5.2.12,6.110,14.023,27]nonacosa-1(26),2,4,6(29),20,23(27),24-heptaen-8-yl]carbamoyl]-2-methyl-propyl]-N-methyl-1-prop-2-ynyl-pyrrolidine-3-carboxamide] |
| 297 | 42 | 30 | – | 51 | 162 | C#CC1CC(C(=O)N(C)[C@H](C(=O)N[C@H]2Cc3cc(O)cc(c3)-c3ccc4c(c3)c(c(-c3cccnc3[C@H](C)OC)n4CC)CC(C)(C)COC(=O)[C@@H]3CCCN(N3)C2=O)C(C)C)C1 (stereo partly drawn) [Example 4, N-[(1S)-1-[[(8S,14S)-22-ethyl-4-hydroxy-(21M)-21-[2-[(1S)-1-methoxyethyl]-3-pyridyl]-18,18-dimethyl-9,15-dioxo-16-oxa-10,22,28-triazapentacyclo[18.5.2.12,6.110,14.023,27]nonacosa-1(26),2,4,6(29),20,23(27),24-heptaen-8-yl]carbamoyl]-2-methyl-propyl]-3-ethynyl-N-methyl-cyclobutanecarboxamide] |
| – | 436 | – | – | – | – | CCn1c(-c2cccnc2[C@H](C)OC)c2c3cc(ccc31)-c1cc(O)cc(c1)C[C@H](NC(=O)[C@H](C(C)C)N(C)C(=O)C1CC(C(=O)C=S(C)(C)=O)C1)C(=O)N1CCC[C@H](N1)C(=O)OCC(C)(C)C2 (stereo partly drawn) [Example 8, 3-[2-[dimethyl(oxo)-λ^6-sulfanylidene]acetyl]-N-[(1S)-1-[[(8S,14S)-22-ethyl-4-hydroxy-(21M)-21-[2-[(1S)-1-methoxyethyl]-3-pyridyl]-18,18-dimethyl-9,15-dioxo-16-oxa-10,22,28-triazapentacyclo[18.5.2.12,6.110,14.023,27]nonacosa-1(26),2,4,6(29),20,23(27),24-heptaen-8-yl]carbamoyl]-2-methyl-propyl]-N-methyl-cyclobutanecarboxamide] |
| – | 189 | 66 | – | 274 | 328 | CCn1c(-c2cccnc2[C@H](C)OC)c2c3cc(ccc31)-c1cc(O)cc(c1)C[C@H](NC(=O)[C@H](C(C)C)N(C)C(=O)C1CC(C#Cc3ccccn3)C1)C(=O)N1CCC[C@H](N1)C(=O)OCC(C)(C)C2 (stereo partly drawn) [Example 13, N-[(1S)-1-[[(8S,14S)-22-ethyl-4-hydroxy-(21M)-21-[2-[(1S)-1-methoxyethyl]-3-pyridyl]-18,18-dimethyl-9,15-dioxo-16-oxa-10,22,28-triazapentacyclo[18.5.2.12,6.110,14.023,27]nonacosa-1(26),2,4,6(29),20,23(27),24-heptaen-8-yl]carbamoyl]-2-methyl-propyl]-N-methyl-3-[2-(2-pyridyl)ethynyl]cyclobutanecarboxamide] |
